Results taken from US12474342B2, “Methods for treating cancer and the use of biomarkers as a predictor of clinical sensitivity to therapies” (CELGENE CORPORATION, priority 2016, dated 2025).
Read-outs that look alike come from different tables or passages of the source. Marks after values point to notes of the source that are not given here.

Columns and labels:
[1] = system: KASUMI-1 cells; assay: Anti-proliferation 72-hour CTG assay, KASUMI-1; assay type: cell-based; details: Homo sapiens; KASUMI-1, 72-hour CTG assay; read-out: IC50 of the anti-proliferative effect
Procedure: A plethora of AML cell lines were treated with serial dilutions of Compound D. IC50 value of the anti-proliferation effect of Compound D (as determined in 72-hour CTG assays) in each cell line is summarized in Table 1.

[2] = molecular target: T1, GSPT1 (Homo sapiens, UniProt P15170+Q96SW2); assay: GSPT1 protein reduction, western analysis, normal PBMCs
T1 sequence (P15170 1-637 isoform P15170-3): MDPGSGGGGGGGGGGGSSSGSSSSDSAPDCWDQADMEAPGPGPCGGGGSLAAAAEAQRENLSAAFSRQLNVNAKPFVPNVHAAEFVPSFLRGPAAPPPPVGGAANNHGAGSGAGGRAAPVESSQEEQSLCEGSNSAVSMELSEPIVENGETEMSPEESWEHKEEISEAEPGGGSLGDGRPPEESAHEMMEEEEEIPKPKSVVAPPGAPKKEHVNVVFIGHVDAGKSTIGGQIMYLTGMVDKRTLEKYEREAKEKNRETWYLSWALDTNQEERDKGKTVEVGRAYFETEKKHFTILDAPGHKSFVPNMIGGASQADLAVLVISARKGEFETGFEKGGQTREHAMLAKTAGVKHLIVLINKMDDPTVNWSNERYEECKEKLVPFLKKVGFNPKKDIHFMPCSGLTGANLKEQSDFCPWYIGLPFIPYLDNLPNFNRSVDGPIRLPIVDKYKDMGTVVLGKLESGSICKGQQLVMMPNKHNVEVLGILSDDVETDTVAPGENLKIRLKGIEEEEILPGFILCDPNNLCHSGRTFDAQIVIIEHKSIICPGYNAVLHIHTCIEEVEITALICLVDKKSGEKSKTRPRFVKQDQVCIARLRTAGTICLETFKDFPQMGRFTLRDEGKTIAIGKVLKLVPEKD
T1 sequence (Q96SW2 whole entry): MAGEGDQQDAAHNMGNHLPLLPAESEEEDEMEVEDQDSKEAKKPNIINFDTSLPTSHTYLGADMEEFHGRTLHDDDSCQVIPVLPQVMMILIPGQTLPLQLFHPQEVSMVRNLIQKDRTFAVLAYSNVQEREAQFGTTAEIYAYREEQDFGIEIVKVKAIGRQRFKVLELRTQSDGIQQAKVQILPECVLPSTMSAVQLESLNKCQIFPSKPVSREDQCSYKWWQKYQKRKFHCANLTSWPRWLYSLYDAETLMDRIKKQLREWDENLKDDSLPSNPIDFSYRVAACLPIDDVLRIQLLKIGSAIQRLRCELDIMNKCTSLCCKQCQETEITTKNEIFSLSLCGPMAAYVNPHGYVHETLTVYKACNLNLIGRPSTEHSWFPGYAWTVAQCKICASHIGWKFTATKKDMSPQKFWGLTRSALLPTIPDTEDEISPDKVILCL
T1 sequence (Q16531 whole entry partner): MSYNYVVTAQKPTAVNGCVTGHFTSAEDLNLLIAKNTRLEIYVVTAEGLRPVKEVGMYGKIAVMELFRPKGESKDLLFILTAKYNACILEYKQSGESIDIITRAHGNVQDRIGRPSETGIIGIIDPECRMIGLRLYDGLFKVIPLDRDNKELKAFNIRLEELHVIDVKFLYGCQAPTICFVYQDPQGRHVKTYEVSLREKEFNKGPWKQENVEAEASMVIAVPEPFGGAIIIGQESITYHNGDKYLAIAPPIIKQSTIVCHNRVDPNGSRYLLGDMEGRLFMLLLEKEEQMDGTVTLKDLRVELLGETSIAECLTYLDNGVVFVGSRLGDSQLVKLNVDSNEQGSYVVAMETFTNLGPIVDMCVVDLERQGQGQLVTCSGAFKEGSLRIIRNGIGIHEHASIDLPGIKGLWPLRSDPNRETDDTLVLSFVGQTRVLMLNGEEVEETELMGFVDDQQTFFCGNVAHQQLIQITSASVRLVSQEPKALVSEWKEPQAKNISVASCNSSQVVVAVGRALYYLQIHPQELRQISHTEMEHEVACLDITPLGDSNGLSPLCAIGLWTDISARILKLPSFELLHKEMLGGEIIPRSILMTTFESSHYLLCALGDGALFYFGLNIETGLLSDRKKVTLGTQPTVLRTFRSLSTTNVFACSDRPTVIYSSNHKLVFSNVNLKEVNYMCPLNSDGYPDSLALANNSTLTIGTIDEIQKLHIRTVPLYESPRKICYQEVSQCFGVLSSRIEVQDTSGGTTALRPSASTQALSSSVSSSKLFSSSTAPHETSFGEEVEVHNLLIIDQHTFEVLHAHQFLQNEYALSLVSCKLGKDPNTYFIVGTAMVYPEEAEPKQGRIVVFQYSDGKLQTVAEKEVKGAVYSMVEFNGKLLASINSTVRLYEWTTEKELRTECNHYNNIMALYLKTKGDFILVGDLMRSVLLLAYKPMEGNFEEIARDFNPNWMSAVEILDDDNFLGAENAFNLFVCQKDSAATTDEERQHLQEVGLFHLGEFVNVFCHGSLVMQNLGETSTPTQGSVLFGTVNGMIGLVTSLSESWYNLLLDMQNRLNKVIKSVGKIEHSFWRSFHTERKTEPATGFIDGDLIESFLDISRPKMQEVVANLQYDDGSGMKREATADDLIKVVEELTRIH
Procedure: PBMC were treated with 1 nM, 10 nM, 100 nM, or 1000 nM of Compound D or Compound E for 20 hours.

[3] = molecular target: T1, GSPT1; assay: GSPT1 degradation, western blot, MOLM-13; assay type: cell-based; set-up: endogenous in cells; details: 100 nM
Excerpt: Thus, Compound D-induced GSPT1 degradation is also CRBN-dependent.

[4] = molecular target: T1, GSPT1; assay: GSPT1 protein reduction, western analysis, ML-2; assay type: cell-based; set-up: reduction in GSPT1 protein level was evaluated in human normal PBMCs; endogenous in cells; host or cells: primary PBMCs from normal donors (ID 4328, 4379) and AML patients (ID 11SH, 09P6)
Procedure: The time course of the reduction in GSPT1 by Compound D also was studied for up to 48 hours. The progressive degradation of GSPT1 over the course of 1 to 20 hours was evident in the presence of all concentrations of Compound D studied from 3 to 300 nM in HNT-34, HL-60, and ML-2 cells, with little GSPT1 remaining by 20 hours at 100 or 300 nM Compound D in HNT-34 or HL-60 cells (FIG. 34 and FIG. 35C). Time-dependent reduction in GSPT1 was also observed in KG-1 and OCI-AML2 cells at 3 to 1000 nM Compound D, with little GSPT1 remaining in KG-1 cells at 100 to 300 nM at 24 hours or in OCI-AML2 cells at 300 and 1000 nM at 24 hours (FIG. 35D). Loss of GSPT1 occurred more slowly in Kasumi-1, AML-193, and […] cells. […] A positive association (r^2=0.50; […]

[5] = system: OCI-AML2 cells; assay: Apoptosis (caspase 3/7 activation), OCI-AML2; assay type: cell-based, human; details: for EC50: Homo sapiens, read-out: Compound D-induced Apoptosis EC50
[6] = molecular target: T1, GSPT1; assay: GSPT1 protein reduction, western analysis, OCI-AML3; assay type: cell-based; set-up: reduction in GSPT1 protein level was evaluated in human normal PBMCs; endogenous in cells; host or cells: primary PBMCs from normal donors (ID 4328, 4379) and AML patients (ID 11SH, 09P6)
Procedure: The reduction in the level of GSPT1 protein was concentration-dependent over the range of 3 to 1000 nM in eight of the nine AML cell lines and over the range of 300 to 1000 nM in one relatively insensitive AML cell line. The time course of the reduction in GSPT1 by Compound D also was studied for up to 48 hours. The progressive degradation of GSPT1 over the course of 1 to 20 hours was evident in the presence of all concentrations of Compound D studied from 3 to 300 nM in HNT-34, HL-60, and ML-2 cells, with little GSPT1 remaining by 20 hours at 100 or 300 nM Compound D in HNT-34 or HL-60 cells (FIG. 34 and FIG. 35C). Time-dependent reduction in GSPT1 was also observed in KG-1 and OCI-AML2 cells at 3 to 1000 nM Compound D, with little GSPT1 remaining in KG-1 cells at 100 to 300 nM at 24 hours or in OCI-AML2 cells at 300 and 1000 nM at 24 hours (FIG. 35D). Loss of GSPT1 occurred more slowly in Kasumi-1, AML-193, and F36-P cells.
Compound D-mediated GSPT1 reduction at 8 hours was compared to induction of caspase 3/7 activation (apoptosis) at 12, 24, and 48 hour time points in these nine AML cell lines. […] A positive association (r^2=0.50; R=0.71; p value=4.86E-002) was observed between the level of GSPT1 reduction and apoptosis induction in the AML cell panel (FIG. 36), with >90% GSPT1 reduction correlating with induction of apoptosis.

[7] = system: ML-2 cells; assay: Apoptosis (caspase 3/7 activation), ML-2; assay type: cell-based, human; details: for EC50: Homo sapiens, read-out: Compound D-induced Apoptosis EC50
[8] = system: KASUMI-1 cells; assay: Apoptosis (caspase 3/7 activation), Kasumi-1; assay type: cell-based, human

What does the source list for `O=C1CCC(N2Cc3cc(CNC(=O)C(F)(F)c4ccc(Cl)cc4)ccc3C2=O)C(=O)N1` (centres unmarked) [Compound D, 2-(4-chlorophenyl)-N-((2-(2,6-dioxopiperidin-3-yl)-1-oxoisoindolin-5-yl)methyl)-2,2-difluoroacetamide]?
IC50 [1]: 0.021 µM; Reduction in GSPT1 Protein Level ([2]; PBMC sample 4328 (normal), 100 nM Compound D, 8 hours): 67%; Reduction in GSPT1 Protein Level ([2]; PBMC sample 4328 (normal), 100 nM Compound D, 22 hours): 92%; Reduction in GSPT1 Protein Level ([2]; PBMC sample 4328 (normal), 300 nM Compound D, 8 hours): 80%; Reduction in GSPT1 Protein Level ([2]; PBMC sample 4328 (normal), 300 nM Compound D, 22 hours): 98%; Reduction in GSPT1 Protein Level ([2]; PBMC sample 4379 (normal), 100 nM Compound D, 8 hours): 39%; Reduction in GSPT1 Protein Level ([2]; PBMC sample 4379 (normal), 100 nM Compound D, 22 hours): 73%; Reduction in GSPT1 Protein Level ([2]; PBMC sample 4379 (normal), 300 nM Compound D, 8 hours): 58%; Reduction in GSPT1 Protein Level ([2]; PBMC sample 4379 (normal), 300 nM Compound D, 22 hours): 83%; time at which GSPT1 degradation was evident ([2]; healthy PBMCs, 10 nM Compound D): 4 h; degradation of GSPT1 ([3]; CRBN -/- MOLM-13 cells): could not induce degradation; degradation of GSPT1 ([3]; parental MOLM-13 cells): induced degradation; reduction of GSPT1 protein levels ([4]; ML-2, 100 nM Compound D, 8 hours): greater than 800; Percent Reduction at 100 nM Compound D GSPTI (8 hr) ([4]; ML-2, 100 nM, 8 hr): 82%; EC50 ([5]; OCI-AML2, 48 hr): 0.081 µM; EC50 ([5]; OCI-AML2, 72 hr): 0.041 µM; EC50 ([5]; OCI-AML2, 96 hr): 0.038 µM; Average Percent Increase in Apoptosis at 123 nM Compound D, Apoptosis (12 hr) ([5]; OCI-AML2, 123 nM, 12 hr): 0%; Average Percent Increase in Apoptosis at 123 nM Compound D, Apoptosis (24 hr) ([5]; OCI-AML2, 123 nM, 24 hr): 3%; Average Percent Increase in Apoptosis at 123 nM Compound D, Apoptosis (48 hr) ([5]; OCI-AML2, 123 nM, 48 hr): 33%; Percent Reduction at 100 nM Compound D GSPTI (8 hr) ([6]; OCI-AML3, 100 nM, 8 hr, visual interpolation between 3 and 300 nM): ~30^b %; GSPT1 reduction ([6]; OCI-AML3, 300 nM Compound D, 8 hours): 37%; GSPT1 protein level ([6]; OCI-AML3, 4-hour exposure): barely changed; loss of GSPT1 ([6]; OCI-AML3, 300 and 1000 nM, 24 and 48 hours): slight loss; EC50 ([7]; ML-2, 24 hr): 0.062 µM; EC50 ([7]; ML-2, 48 hr): 0.031 µM; EC50 ([7]; ML-2, 72 hr): 0.021 µM; EC50 ([7]; ML-2, 96 hr): 0.025 µM; Average Percent Increase in Apoptosis at 123 nM Compound D, Apoptosis (12 hr) ([7]; ML-2, 123 nM, 12 hr): 2%; Average Percent Increase in Apoptosis at 123 nM Compound D, Apoptosis (24 hr) ([7]; ML-2, 123 nM, 24 hr): 17%; Average Percent Increase in Apoptosis at 123 nM Compound D, Apoptosis (48 hr) ([7]; ML-2, 123 nM, 48 hr): 51%; EC50 ([8]; Homo sapiens, read-out: Compound D-induced Apoptosis EC50, Kasumi-1, 96 hr): 0.055 µM; Average Percent Increase in Apoptosis at 123 nM Compound D, Apoptosis (12 hr) ([8]; Kasumi-1, 123 nM, 12 hr): 1%; Average Percent Increase in Apoptosis at 123 nM Compound D, Apoptosis (24 hr) ([8]; Kasumi-1, 123 nM, 24 hr): 3%; Average Percent Increase in Apoptosis at 123 nM Compound D, Apoptosis (48 hr) ([8]; Kasumi-1, 123 nM, 48 hr): 18%
